{"source": "patent EP0939084A1", "about": "“An estrogen binding proteinaceous substance, its possible role in estrogen action, and potential use” (Rao, Ramanath B., priority 1998, dated 1999)", "key": {"[1]": {"tested_on": "type II ER", "details": "literature (40-41,43); cited from earlier work"}, "[2]": {"tested_on": "estrogen binding protein (EBP), 84 kD heterodimer, mouse fetal liver", "assay": "Competition for / modulation of ^3H-estradiol-17β binding to EBP (charcoal assay)", "details": "for inhibition of / influence on ^3H-estradiol-17β binding to EBP: competitor concentration not stated", "procedure": "(§1) In brief, the procedure is as follows. […] Simultaneously tubes in duplicate without any added protein sample were set up as control. At the end of the incubation the tubes were put in an ice bath for 15 minutes to cool to the ice bath temperature. 0.5 ml of charcoal solution (0.05% heat activated charcoal plus 0.05% bovine serum albumin in tris buffer) was added, mixed and incubated further for 10 minutes. The tubes were then centrifuged at 2500 rpm for 15 minutes at 4°C to pellet the charcoal. 0.5 ml from each tube was carefully withdrawn without disturbing the charcoal pellet at the bottom of the tube and the radioactivity was measured following mixing with the scintillation cocktail. The net protein bound radioactivity was calculated after deducting the background counts based on the tubes without any added protein."}, "[3]": {"tested_on": "estrogen binding protein (EBP), 84 kD heterodimer, mouse fetal liver", "assay": "Sucrose density gradient centrifugation of EBP incubated with ^3H-estradiol-17β and competitor", "details": "^3H-estradiol-17β 0.85 pmol + dimethylbenzanthracene 0.42 nmol or 1.2 nmol; Fig. 17", "source_text": "In the light of the above information attempts were made to analyse whether some of the known pollutants and carcinogens (1-OH, 3-OH, 8-OH, 10-OH benzo(a)pyrene, […]) compete in vitro with ^3H-estradiol-17β for binding site on EBP. […] Since benzo(a)pyrene is a known carcinogen it will be important to determine whether there is a structural relationship between estradiol-17β and the various hydroxy benzo(a)pyrenes. […] It is well known that DMBA is a potent carcinogen and as such it has been extensively used to induce estrogen dependent mammary and endometrial cancers in animals. […] However, this agent is still utilized to coat common plastics of daily use. […] Establishment of a correlationship between the in vitro and in vivo potency of such compounds will provide a rapid in vitro screening assay. Most importantly, such information for the first time will delineate a definitive role for an estrogen binder such as EBP in carcinogenesis and may also enable to explain why compounds such as DMBA induce tumors in estrogen responsive tissues as well as why the tumors are estrogen dependent."}, "[4]": {"tested_on": "estrogen binding protein (EBP), 84 kD heterodimer, mouse fetal liver", "procedure": "as §1"}}, "note": "Entries after “also recorded” stand apart in the source; their conditions may differ. Where two headings read alike, the source gives them in different places.", "data": [{"smiles": "O[C@H](CS)[C@H](O)CS", "note": "(racemic) [DTT, dithiotreitol]", "values": [{"measurement": "sensitivity of type II ER estrogen binding to DTT", "setting": "[1]", "value": "highly sensitive"}]}, {"smiles": "CC/C(=C(\\c1ccc(O)cc1)c1ccc(OCCN(C)C)cc1)c1ccccc1", "note": "[4-hydroxytamoxifen]", "values": [{"measurement": "inhibition of / influence on ^3H-estradiol-17β binding to EBP", "setting": "[2]", "value": "no significant inhibitory effect"}]}, {"smiles": "Cc1c2ccccc2c(C)c2c1ccc1ccccc12", "note": "[DMBA, 7,12-dimethylbenzanthracene]", "values": [{"measurement": "inhibition of ^3H-estradiol-17β binding (sucrose gradient centrifugation)", "setting": "[3]", "value": "inhibition"}]}, {"smiles": "CC/C(=C(\\c1ccccc1)c1ccc(OCCN(C)C)cc1)c1ccccc1", "note": "[Tamoxifen]", "values": [{"measurement": "inhibition of / influence on ^3H-estradiol-17β binding to EBP", "setting": "[2]", "value": "no significant inhibitory effect"}]}, {"smiles": "CC/C(=C(/CC)c1ccc(O)cc1)c1ccc(O)cc1", "note": "[diethylstilbestrol]", "values": [{"measurement": "binding of the radiolabelled compound to EBP", "setting": "[4]", "value": "does not bind; also recorded: most estrogens no Des binding no competition (prog, androgen, corticoids)"}]}, {"smiles": "NCCc1ccc(O)c(O)c1", "note": "[dopamine]", "values": [{"measurement": "influence on ^3H-estradiol-17β binding to EBP", "setting": "[2]; both at low and high molarity", "value": "did not significantly influence"}, {"measurement": "inhibition of / influence on ^3H-estradiol-17β binding to EBP", "setting": "[2]", "value": "did not influence"}, {"measurement": "binding of the radiolabelled compound to EBP", "setting": "[4]; radiolabelled ligand", "value": "no binding"}]}, {"smiles": "C[C@]12CC[C@@H]3c4ccc(O)cc4CC[C@H]3[C@@H]1CC[C@H]2O", "note": "[estradiol-17α]", "values": [{"measurement": "inhibition of ^3H-estradiol-17β binding to EBP", "setting": "[2]; competitor at 300-fold the concentration of the radiolabelled estrogen", "value": "no inhibitory effect"}]}, {"smiles": "C[C@]12CC[C@@H]3c4ccc(O)cc4CC[C@H]3[C@@H]1C[C@@H](O)[C@@H]2O", "note": "[estriol]", "values": [{"measurement": "relative binding activities of the competing estrogens", "setting": "[2]; calculated at the 50% reduction level, compared to non-labelled estradiol-17β competing potency", "value": 37, "unit": "%"}, {"measurement": "inhibition of / influence on ^3H-estradiol-17β binding to EBP", "setting": "[2]", "value": "significantly inhibited"}]}]}
